How the values were obtained:
Assay in all cases: relative viability (nuclei count vs DMSO), 5 days (fraction); higher = more cells survive
[1] = test system: NCI-H838
Outline: (§1)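 Relative viability is defined as nuclei in treated wells over nuclei in vehicle wells. Duplicate plates were run and medians reported. Lung cancer cell lines in 1536-well plates were dosed by pin tool one day after seeding, with one drug or with a fixed anchor-drug dose plus five library-drug doses (not always all listed) in √10 steps, and nuclei were counted after 5 days.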

[2] = test system: NCI-H2126
Outline: as §1

[3] = test system: NCI-H522
Outline: as §1

[4] = test system: BEN
Outline: as §1

[5] = test system: NCI-H1993
Outline: as §1

[6] = test system: NCI-H647
Outline: as §1

[7] = test system: NCI-H2347
Outline: as §1

[8] = test system: LOU-NH91
Outline: as §1

[9] = test system: NCI-H727
Outline: as §1

[10] = test system: LCLC-103H
Outline: as §1

[11] = test system: NCI-H650
Outline: as §1

## CC(=O)O[C@@]12CO[C@@H]1C[C@H](O)[C@@]1(C)C(=O)[C@H](O)C3=C(C)[C@@H](OC(=O)[C@H](O)[C@@H](NC(=O)OC(C)(C)C)c4ccccc4)C[C@@](O)([C@@H](OC(=O)c4ccccc4)[C@H]21)C3(C)C [Docetaxel] + Cc1cc(Nc2cc(N3CCN(C)CC3)nc(Sc3ccc(NC(=O)C4CC4)cc3)n2)n[nH]1 [Tozasertib] (partner 0.1 µM)
[1]; first compound 0.0002 µM
  relative viability: 0.236
[1]; first compound 0.000632 µM
  relative viability: 0.27
[1]; first compound 0.002 µM
  relative viability: 0.258
[1]; first compound 0.006325 µM
  relative viability: 0.28
[1]; first compound 0.02 µM
  relative viability: 0.193
[2]; first compound 0.0002 µM
  relative viability: 0.785
[2]; first compound 0.000632 µM
  relative viability: 0.45
[2]; first compound 0.002 µM
  relative viability: 0.359
[2]; first compound 0.006325 µM
  relative viability: 0.354
[2]; first compound 0.02 µM
  relative viability: 0.237
[3]; first compound 0.0002 µM
  relative viability: 0.559
[3]; first compound 0.000632 µM
  relative viability: 0.451
[3]; first compound 0.002 µM
  relative viability: 0.527
[3]; first compound 0.006325 µM
  relative viability: 0.551
[3]; first compound 0.02 µM
  relative viability: 0.585
[4]; first compound 0.0002 µM
  relative viability: 0.499
[4]; first compound 0.000632 µM
  relative viability: 0.503
[4]; first compound 0.002 µM
  relative viability: 0.473
[4]; first compound 0.006325 µM
  relative viability: 0.418
[4]; first compound 0.02 µM
  relative viability: 0.426
[5]; first compound 0.0002 µM
  relative viability: 0.644
[5]; first compound 0.000632 µM
  relative viability: 0.592
[5]; first compound 0.002 µM
  relative viability: 0.604
[5]; first compound 0.006325 µM
  relative viability: 0.515
[5]; first compound 0.02 µM
  relative viability: 0.586
[6]; first compound 0.0002 µM
  relative viability: 0.258
[6]; first compound 0.000632 µM
  relative viability: 0.339
[6]; first compound 0.002 µM
  relative viability: 0.148
[6]; first compound 0.006325 µM
  relative viability: 0.132
[6]; first compound 0.02 µM
  relative viability: 0.103
[7]; first compound 0.0002 µM
  relative viability: 0.511
[7]; first compound 0.000632 µM
  relative viability: 0.594
[7]; first compound 0.002 µM
  relative viability: 0.441
[7]; first compound 0.006325 µM
  relative viability: 0.293
[7]; first compound 0.02 µM
  relative viability: 0.268
[8]; first compound 0.0002 µM
  relative viability: 0.657
[8]; first compound 0.000632 µM
  relative viability: 0.574
[8]; first compound 0.002 µM
  relative viability: 0.39
[8]; first compound 0.006325 µM
  relative viability: 0.383
[8]; first compound 0.02 µM
  relative viability: 0.247
[9]; first compound 0.0002 µM
  relative viability: 0.781
[9]; first compound 0.000632 µM
  relative viability: 0.614
[9]; first compound 0.002 µM
  relative viability: 0.611
[9]; first compound 0.006325 µM
  relative viability: 0.518
[9]; first compound 0.02 µM
  relative viability: 0.398
[10]; first compound 0.0002 µM
  relative viability: 0.48
[10]; first compound 0.000632 µM
  relative viability: 0.39
[10]; first compound 0.002 µM
  relative viability: 0.358
[10]; first compound 0.006325 µM
  relative viability: 0.377
[10]; first compound 0.02 µM
  relative viability: 0.296
[11]; first compound 0.0002 µM
  relative viability: 0.666
[11]; first compound 0.000632 µM
  relative viability: 0.381

Source: the supplement of paper PMC10307832
